{
  "source": "ChEMBL document CHEMBL5214906",
  "about": "“Novel Antiplasmodial Compounds Leveraged with Multistage Potency against the Parasite Plasmodium falciparum: In Vitro and In Vivo Evaluations and Pharmacokinetic Studies” (J Med Chem, 2021)",
  "key": {"Plasmodium berghei [1]": {"system": "Plasmodium berghei", "test": "Antiplasmodial activity against Plasmodium berghei isolated from parasite-infected mouse blood assessed as reduction in number of healthy parasites in compound treated ookinete medium co-cultured with mouse blood at 0.05 to 0.45 uM by giemsa staining based analysis", "type": "functional, organism-based", "details": "dose 0.05-0.45 µM"}, "[2]": {"test": "Toxicity in C57BL/6 mouse assessed as effect on SGPT level in serum at 400 mg/kg, ip measured upto 24 hrs (reference value: 37.59 U/L)", "type": "organism-based", "details": "in vivo"}, "[3]": {"test": "Toxicity in C57BL/6 mouse assessed as effect on serum calcium level at 400 mg/kg, ip measured upto 24 hrs (reference value: 8.89 mg/dl)", "type": "organism-based", "details": "in vivo"}, "[4]": {"test": "Toxicity in C57BL/6 mouse assessed as effect on alkaline phosphatase level in serum at 400 mg/kg, ip measured upto 24 hrs (reference value: 108.3 U/L)", "type": "organism-based", "details": "in vivo"}, "[5]": {"test": "Toxicity in C57BL/6 mouse assessed as effect on serum uric acid level at 400 mg/kg, ip measured upto 24 hrs (reference value: 2.58 mg/dl)", "type": "organism-based", "details": "in vivo"}, "Plasmodium berghei [6]": {"system": "Plasmodium berghei", "test": "In vivo antimalarial activity against GFP-expressing Plasmodium berghei infected in C57BL/6 mouse assessed as inhibition of parasite growth in thin blood smear at 50 mg/kg, ip administered for 4 days and measured upto 8 days post-infection by giemsa staining based microscopic analysis", "type": "functional, organism-based", "details": "time <= 8.0 day"}, "[7]": {"test": "Toxicity in C57BL/6 mouse assessed as effect on direct bilirubin level at 400 mg/kg, ip measured upto 24 hrs (reference value: 0.17 mg/dl)", "type": "organism-based", "details": "in vivo"}, "Plasmodium berghei [8]": {"system": "Plasmodium berghei", "test": "Antimalarial activity against Plasmodium berghei assessed as reduction in oocyte burden in Anopheles stephensi mosquito midgut fed with blood isolated from compound treated parasite-infected Balb/c mouse at 200 mg/kg administered on day 1 and day 9 relative to control", "type": "functional", "design": "scale not given: the % may be the effect or the level left", "details": "time 9 day"}, "[9]": {"test": "Toxicity in C57BL/6 mouse assessed as effect on urea level at 400 mg/kg, ip measured upto 24 hrs (reference value: 44.50 mg/dl)", "type": "organism-based", "details": "in vivo"}, "[10]": {"test": "Toxicity in C57BL/6 mouse assessed as effect on indirect bilirubin level at 400 mg/kg, ip measured upto 24 hrs (reference value: 0.22 mg/dl)", "type": "organism-based", "details": "in vivo"}, "Plasmodium berghei [11]": {"system": "Plasmodium berghei", "test": "Antimalarial activity against Plasmodium berghei assessed as reduction in Plasmodium berghei oocyte formation in Anopheles stephensi mosquito midgut fed with blood isolated from compound treated parasite-infected Balb/c mouse at 200 mg/kg administered on day 1 and day 9", "type": "functional, organism-based", "details": "time 9.0 day"}, "[12]": {"test": "Therapeutic index, ratio of TC50 for cytotoxicity against human HepG2 cells to IC50 for antiplasmodial activity against Plasmodium falciparum 3D7 infected in human red blood cells", "type": "toxicity, cell-based", "details": "read-out: TI"}, "Erythrocyte": {"system": "Erythrocyte", "test": "Hemolytic activity against human red blood cells upto 1600 uM incubated for 1 hrs by hemolysis assay", "type": "toxicity, cell-based"}, "Plasmodium berghei [13]": {"system": "Plasmodium berghei", "test": "In vivo antimalarial activity against Plasmodium berghei ANKA infected in C57BL/6 mouse assessed as reduction in parasitemia at 50 mg/kg, ip administered for 4 days and measured at day 8 post-infection in the presence of artesunate by giemsa staining based microscopic analysis relative to control", "type": "functional", "design": "scale not given: the % may be the effect or the level left", "details": "time 8 day"}, "Plasmodium berghei [14]": {"system": "Plasmodium berghei", "test": "In vivo antimalarial activity against Plasmodium berghei ANKA strain infected in C57BL/6 mouse assessed as increase in mean survival time at 50 mg/kg, ip administered for 4 days and measured upto 30 days in the presence of artesunate (reference value: 13 days)", "type": "functional", "details": "time <= 30 day"}, "[15]": {"test": "Toxicity in C57BL/6 mouse assessed as effect on liver structure at 400 mg/kg, ip measured upto 24 hrs by H&E staining based histopathological analysis", "type": "organism-based", "details": "in vivo"}, "Plasmodium falciparum [16]": {"system": "Plasmodium falciparum", "test": "Inhibition of Plasmodium falciparum plasmepsin X […] at 1 uM using DABCYL-G-PSFVEAPVRGG-EDANS as substrate by fluorescence based assay relative to control"}, "[17]": {"test": "Toxicity in C57BL/6 mouse assessed as effect on globulin level at 400 mg/kg, ip measured upto 24 hrs (reference value: 4.19 gm/dl)", "type": "organism-based", "details": "in vivo"}, "Plasmodium falciparum [18]": {"system": "Plasmodium falciparum", "test": "Antiplasmodial activity against artemisinin partially resistant Plasmodium falciparum harbouring C580Y mutant assessed as inhibition of parasitemia", "type": "functional, organism-based, Red blood cell", "details": "Erythrocyte"}, "[19]": {"test": "Toxicity in C57BL/6 mouse assessed as effect on body weight at 100 to 400 mg/kg, ip measured upto 24 hrs", "type": "organism-based", "details": "in vivo, dose 100-400 mg/kg"}, "[20]": {"test": "Toxicity in C57BL/6 mouse assessed as effect on SGOT level in serum at 400 mg/kg, ip measured upto 24 hrs (reference value: 147.2 U/L)", "type": "organism-based", "details": "in vivo"}, "[21]": {"test": "Toxicity in C57BL/6 mouse assessed as effect on serum LDH level at 400 mg/kg, ip measured upto 24 hrs", "type": "organism-based", "details": "in vivo"}, "[22]": {"test": "Toxicity in C57BL/6 mouse assessed as effect on albumin level at 400 mg/kg, ip measured upto 24 hrs (reference value: 2.10 gm/dl)", "type": "organism-based", "details": "in vivo"}, "Plasmodium berghei [23]": {"system": "Plasmodium berghei", "test": "In vivo antimalarial activity against Plasmodium berghei ANKA strain infected in C57BL/6 mouse assessed as increase in mean survival time at 50 mg/kg, ip administered for 4 days and measured upto 30 days (reference value: 13 days)", "type": "functional", "details": "time <= 30 day"}, "Plasmodium falciparum [24]": {"system": "Plasmodium falciparum", "test": "Resistance index, ratio of IC50 for antiplasmodial activity against artemisinin partially resistant Plasmodium falciparum harbouring C580Y mutant to IC50 for antiplasmodial activity against Plasmodium falciparum 3D7", "type": "functional"}, "Plasmodium berghei [25]": {"system": "Plasmodium berghei", "test": "Antimalarial activity against Plasmodium berghei infected in Balb/c mouse assessed as parasite killing at 200 mg/kg administered on day 1 and day 9 relative to control", "type": "functional", "details": "time 9 day"}, "[26]": {"test": "Toxicity in C57BL/6 mouse assessed as effect on feeding at 100 to 400 mg/kg, ip measured upto 24 hrs", "type": "organism-based", "details": "in vivo, dose 100-400 mg/kg"}, "[27]": {"test": "Toxicity in C57BL/6 mouse assessed as effect on motor activity at 100 to 400 mg/kg, ip measured upto 24 hrs", "type": "organism-based", "details": "in vivo, dose 100-400 mg/kg"}, "[28]": {"test": "Toxicity in C57BL/6 mouse assessed as effect on total protein level at 400 mg/kg, ip measured upto 24 hrs (reference value: 6.29 gm/dl)", "type": "organism-based", "details": "in vivo"}, "Plasmodium berghei [29]": {"system": "Plasmodium berghei", "test": "Antiplasmodial activity against firefly luciferase-expressing Plasmodium berghei liver stage infected in human Huh-7 cells assessed as inhibition of parasite growth preincubated with cells for 1 hrs followed by parasite infection and […] by bioluminescence assay", "type": "functional, organism-based"}, "[30]": {"test": "Toxicity in C57BL/6 mouse assessed as effect on serum creatinine level at 400 mg/kg, ip measured upto 24 hrs (reference value: 0.47 mg/dl)", "type": "organism-based", "details": "in vivo"}, "Plasmodium berghei [31]": {"system": "Plasmodium berghei", "test": "In vivo antimalarial activity against GFP-expressing Plasmodium berghei infected in C57BL/6 mouse assessed as inhibition of parasite growth in thick blood smear at 50 mg/kg, ip administered for 4 days and measured upto 8 days post-infection by microscopic analysis", "type": "functional, organism-based", "details": "time <= 8.0 day"}, "[32]": {"test": "Toxicity in C57BL/6 mouse assessed as effect on total bilirubin level at 400 mg/kg, ip measured upto 24 hrs (reference value: 0.39 mg/dl)", "type": "organism-based", "details": "in vivo"}, "[33]": {"test": "Cytotoxicity against human HepG2 cells assessed as reduction in cell viability incubated for 48 hrs by MTT assay", "type": "toxicity, cell-based", "details": "read-out: TC50"}, "Plasmodium falciparum [34]": {"system": "Plasmodium falciparum", "test": "Antiplasmodial activity against Plasmodium falciparum 3D7 infected in human red blood cells assessed as inhibition of parasitemia incubated for 48 hrs by giemsa staining based light microscopic analysis", "type": "functional, organism-based, Red blood cell", "details": "3D7, Erythrocyte"}, "[35]": {"test": "Drug recovery in C57BL/6 mouse plasma at 0.1 mg/ml", "type": "ADME, cell-free"}, "[36]": {"test": "Toxicity in C57BL/6 mouse assessed as effect on kidney structure at 400 mg/kg, ip measured upto 24 hrs by H&E staining based histopathological analysis", "type": "organism-based", "details": "in vivo"}, "Plasmodium berghei [37]": {"system": "Plasmodium berghei", "test": "In vivo antimalarial activity against Plasmodium berghei ANKA infected in C57BL/6 mouse assessed as reduction in parasitemia at 50 mg/kg, ip administered for 4 consecutive days and measured on day 8 post-infection by giemsa staining based microscopic analysis relative to control", "type": "functional", "design": "scale not given: the % may be the effect or the level left", "details": "time 8 day"}},
  "note": "The source made the active and inactive calls. The calls are words filed in the database; no cut-off is given here.",
  "data": [
    {"compound": "O=C(N[C@@H](Cc1ccccc1)[C@@H](O)CN1CCN(Cc2ccccc2)CC1)c1ccc2ccccc2c1", "values": [
      {"measurement": "Activity", "setting": "Plasmodium berghei [1]", "value": "Active"},
      {"measurement": "Activity", "setting": "[2]", "value": 22.45, "unit": "U/L"},
      {"measurement": "Activity", "setting": "[3]", "value": 9.24, "unit": "mg/dL"},
      {"measurement": "Activity", "setting": "[4]", "value": 41.9, "unit": "U/L"},
      {"measurement": "Activity", "setting": "[5]", "value": 2.49, "unit": "mg/dL"},
      {"measurement": "Activity", "setting": "Plasmodium berghei [6]", "value": "Active"},
      {"measurement": "Activity", "setting": "[7]", "value": 0.11, "unit": "mg/dL"},
      {"measurement": "Activity", "setting": "Plasmodium berghei [8]", "value": 80, "unit": "%"},
      {"measurement": "Activity", "setting": "[9]", "value": 49.03, "unit": "mg/dL"},
      {"measurement": "Activity", "setting": "[10]", "value": 0.17, "unit": "mg/dL"},
      {"measurement": "Activity", "setting": "Plasmodium berghei [11]", "value": "Active"},
      {"measurement": "selectivity ratio", "setting": "[12]", "value": 1560},
      {"measurement": "Activity", "setting": "Erythrocyte", "value": "Non-Toxic"},
      {"measurement": "Activity", "setting": "Plasmodium berghei [13]", "value": 99, "unit": "%"},
      {"measurement": "MST", "setting": "Plasmodium berghei [14]", "value": 27, "unit": "days"},
      {"measurement": "Activity", "setting": "[15]", "value": "Non-Toxic"},
      {"measurement": "inhibition", "setting": "Plasmodium falciparum [16]", "value": 17.7, "unit": "%"},
      {"measurement": "Activity", "setting": "[17]", "value": 4.14, "unit": "g/dL"},
      {"measurement": "IC50", "setting": "Plasmodium falciparum [18]", "value": 110, "unit": "nM"},
      {"measurement": "Activity", "setting": "[19]", "value": "Non-Toxic"},
      {"measurement": "Activity", "setting": "[20]", "value": 123.1, "unit": "U/L"},
      {"measurement": "Activity", "setting": "[21]", "value": "Non-Toxic"},
      {"measurement": "Activity", "setting": "[22]", "value": 2.68, "unit": "g/dL"},
      {"measurement": "MST", "setting": "Plasmodium berghei [23]", "value": 17, "unit": "days"},
      {"measurement": "Ratio IC50", "setting": "Plasmodium falciparum [24]", "value": 0.72},
      {"measurement": "Activity", "setting": "Plasmodium berghei [25]", "value": 100, "unit": "%"},
      {"measurement": "Activity", "setting": "[26]", "value": "Non-Toxic"},
      {"measurement": "Activity", "setting": "[27]", "value": "Non-Toxic"},
      {"measurement": "Activity", "setting": "[28]", "value": 6.82, "unit": "g/dL"},
      {"measurement": "IC50", "setting": "Plasmodium berghei [29]", "value": 1560, "unit": "nM"},
      {"measurement": "Activity", "setting": "[30]", "value": 0.77, "unit": "mg/dL"},
      {"measurement": "Activity", "setting": "Plasmodium berghei [31]", "value": "Active"},
      {"measurement": "Activity", "setting": "[32]", "value": 0.28, "unit": "mg/dL"},
      {"measurement": "CC50 at 48 h", "setting": "[33]", "value": 234000, "unit": "nM"},
      {"measurement": "IC50", "setting": "Plasmodium falciparum [34]", "value": 150, "unit": "nM"},
      {"measurement": "Drug recovery", "setting": "[35]", "value": "> 87.3", "unit": "%"},
      {"measurement": "Activity", "setting": "[36]", "value": "Non-Toxic"},
      {"measurement": "Activity", "setting": "Plasmodium berghei [37]", "value": 75, "unit": "%"}
    ]}
  ]
}
